IC50 data for 24 molecules are collected here from patent US12692223B2, “Phenyl-sulfamoyl-benzoic acid derivatives as ERAP1-modulators” (GREY WOLF THERAPEUTICS LIMITED, priority 2021, dated 2026).

As a reminder, the IC50 is the point on the concentration scale where inhibition reaches its midpoint.

SMILES strings stand for the structures.

In the assay the target is T1, ERAP1 (Homo sapiens, UniProt Q9NZ08).
T1 construct: Purified ERAP1(37-941)-10His (ERAP1)
T1 sequence (Q9NZ08 37-941): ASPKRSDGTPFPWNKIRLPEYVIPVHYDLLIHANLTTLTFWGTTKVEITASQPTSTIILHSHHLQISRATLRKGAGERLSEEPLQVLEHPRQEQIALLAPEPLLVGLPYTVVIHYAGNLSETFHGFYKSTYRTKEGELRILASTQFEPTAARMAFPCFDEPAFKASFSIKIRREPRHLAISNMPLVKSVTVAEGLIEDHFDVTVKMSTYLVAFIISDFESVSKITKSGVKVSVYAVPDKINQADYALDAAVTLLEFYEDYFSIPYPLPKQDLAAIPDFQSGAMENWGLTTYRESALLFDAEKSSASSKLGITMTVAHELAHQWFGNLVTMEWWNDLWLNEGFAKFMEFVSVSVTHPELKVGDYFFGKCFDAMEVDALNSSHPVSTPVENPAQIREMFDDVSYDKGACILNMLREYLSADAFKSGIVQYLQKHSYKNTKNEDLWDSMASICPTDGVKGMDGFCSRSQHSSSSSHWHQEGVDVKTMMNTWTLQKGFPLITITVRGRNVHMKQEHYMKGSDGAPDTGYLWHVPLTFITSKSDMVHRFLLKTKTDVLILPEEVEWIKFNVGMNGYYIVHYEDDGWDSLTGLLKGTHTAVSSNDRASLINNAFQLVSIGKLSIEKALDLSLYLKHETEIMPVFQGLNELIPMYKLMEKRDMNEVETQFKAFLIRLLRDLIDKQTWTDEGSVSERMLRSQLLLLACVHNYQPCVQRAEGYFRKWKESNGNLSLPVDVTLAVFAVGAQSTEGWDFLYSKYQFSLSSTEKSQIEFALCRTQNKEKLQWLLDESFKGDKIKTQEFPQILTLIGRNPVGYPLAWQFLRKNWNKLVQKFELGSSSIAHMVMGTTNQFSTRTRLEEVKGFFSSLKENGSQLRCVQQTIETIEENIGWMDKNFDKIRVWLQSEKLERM
Briefly: ERAP1 mediated hydrolysis of an amide substrate measured in a biochemical system (10-mer inhibition assay). As to conditions: purified ERAP1(37-941)-10His; 10-mer substrate; 23° C. for 1 h; excitation 279 nm, emission 355 nm; read-out: IC50 vs Decapeptide WRVYEKC(Dnp)ALK-acid (where Dnp is Dinitrophenyl maleimide) (10-mer). On the procedure: Biological Assay 1: ERAP1 Mediated Hydrolysis of an Amide Substrate Measured in a Biochemical System
• 1× Assay buffer (AB): 25 mM Bis-tris propane, 0.05% w/v • Hydroxypropylmethylcellulose pH 7.75 made with Optima grade water • Decapeptide WRVYEKC(Dnp)ALK-acid (where Dnp is Dinitrophenyl maleimide) (10-mer) • L-Leucine 7-amido-4-methylcoumarin (L-AMC) • Purified ERAP1(37-941)-10His (ERAP1) Assay Procedure:
12.5 μL ERAP1 enzyme in 1×AB was combined with 250 nL test compound in DMSO. 12.5 μL of either 240 μM L-AMC in 1×AB or 100 μM 10-mer in 1×AB was added to the reaction and incubated at 23° C. for 1 h. For detection, plates were read at excitation 365 nm and emission 442 nm (L-AMC) or excitation 279 nm and emission 355 nm (10-mer). Compound IC50 was determined using a 4-parameter equation.
Regarding `O=C(O)c1ccc(C2CC2)c(S(=O)(=O)Nc2cc(-n3cnnn3)ccc2OC2CCCC2)c1` [Example 8, 3-(N-(2-(cyclopentyloxy)-5-(1H-tetrazol-1-yl)phenyl)sulfamoyl)-4-cyclopropylbenzoic acid], the IC50 was < 1 nM.

Take `N#Cc1cc(NS(=O)(=O)c2cc(C(=O)O)ccc2C2CC2)c(OC2CCCC2(F)F)cc1Cl` (stereo not drawn) [Example 83, 3-(N-(4-chloro-5-cyano-2-((2,2-difluorocyclopentyl)oxy)phenyl)sulfamoyl)-4-cyclopropylbenzoic acid]: the IC50 was < 1 nM.

With `N#Cc1cc(NS(=O)(=O)c2cc(C(=O)O)ccc2C2CC2)c(OC2CCC2C2CC2)cc1Cl` (single isomer, unassigned) [Example 132, 3-(N-(4-chloro-5-cyano-2-(2-cyclopropylcyclobutoxy)phenyl)sulfamoyl)-4-cyclopropylbenzoic acid], the IC50 lay in the range of 1 to 5 nM.

In the case of `N#Cc1cc(NS(=O)(=O)c2cc(C(=O)O)ccc2C2CC2)c(OC2CCCC2O)cc1Cl` (racemic) [Example 98, 3-(N-(4-chloro-5-cyano-2-((cis-2-hydroxycyclopentyl)oxy)phenyl)sulfamoyl)-4-cyclopropylbenzoic acid], the IC50 is < 1 nM.

`CC1(C)CCC[C@H]1Oc1cc(Cl)c(C#N)cc1NS(=O)(=O)c1cc(C(=O)O)ccc1C1CC1` [Example 63, (R)-3-(N-(4-chloro-5-cyano-2-((2,2-dimethylcyclopentyl)oxy)phenyl)sulfamoyl)-4-cyclopropylbenzoic acid]: the IC50 is < 1 nM.

For the molecule `N#Cc1cc(NS(=O)(=O)c2cc(C(=O)O)ccc2C2CC2)c(OC2CCCC2F)cc1Cl` (racemic) [Example 86, 3-(N-(4-chloro-5-cyano-2-((trans-2-fluorocyclopentyl)oxy)phenyl)sulfamoyl)-4-cyclopropylbenzoic acid], the IC50 was < 1 nM.

In the case of `COC1CCCC1Oc1cc(Cl)c(C#N)cc1NS(=O)(=O)c1cc(C(=O)O)ccc1C1CC1` (racemic) [Example 102, 3-(N-(4-chloro-5-cyano-2-((cis-2-methoxycyclopentyl)oxy)phenyl)sulfa-moyl)-4-cyclopropylbenzoic acid], the IC50 is < 1 nM.

With `N#Cc1cc(NS(=O)(=O)c2cc(C(=O)O)ccc2C2CC2)c(O[C@H]2C[C@@H](F)C2)cc1Cl` [Example 71, 3-(N-(4-chloro-5-cyano-2-(cis-3-fluorocyclobutoxy)phenyl)sulfamoyl)-4-cyclopropylbenzoic acid], the half-maximal inhibitory concentration (IC50) was < 1 nM.

As for `N#Cc1cc(NS(=O)(=O)c2cc(C(=O)O)c(F)cc2C2CC2)c(OC2CC(F)(F)C2)cc1Cl` [Example 17, 5-(N-(4-chloro-5-cyano-2-(3,3-difluorocyclobutoxy)phenyl)sulfamoyl)-4-cyclopropyl-2-fluorobenzoic acid], the IC50 is < 1 nM.

As for `CC1CCCC1Oc1cc(Cl)c(C#N)cc1NS(=O)(=O)c1cc(C(=O)O)ccc1C1CC1` (racemic) [Example 90, 3-(N-(4-chloro-5-cyano-2-((trans-2-methylcyclopentyl)oxy)phenyl)sulfamoyl)-4-cyclopropylbenzoic acid], the IC50 is < 1 nM.

With `N#Cc1cc(NS(=O)(=O)c2cc(C(=O)O)ccc2C2CC2)c(OCC2(C#N)CCC2)cc1Cl` [Example 82, 3-(N-(4-chloro-5-cyano-2-((1-cyanocyclobutyl)methoxy)phenyl)sulfamoyl)-4-cyclopropylbenzoic acid], the IC50 is < 1 nM.

Take `N#Cc1cc(NS(=O)(=O)c2cc(C(=O)O)ccc2C2CC2)c(OC2CCC(C#N)C2)cc1Cl` (racemic) [Example 72, 3-(N-(4-chloro-5-cyano-2-((trans-3-cyanocyclopentyl)oxy)phenyl)sulfamoyl)-4-cyclopropylbenzoic acid]: the IC50 is < 1 nM.

In the case of `N#Cc1cc(NS(=O)(=O)c2cc(C(=O)O)ccc2C2CC2)c(OC2CCC(F)(F)C2)cc1Cl` (single isomer, unassigned) [Example 141, 3-(N-(4-chloro-5-cyano-2-((3,3-difluorocyclopentyl)oxy)phenyl)sulfa-moyl)-4-cyclopropylbenzoic acid], the IC50 was < 1 nM.

As for `N#Cc1cc(NS(=O)(=O)c2cc(C(=O)O)ccc2C2CC2)c(OC2CCC2O)cc1Cl` (single isomer, unassigned) [Example 129, 3-(N-(4-chloro-5-cyano-2-(trans-2-hydroxycyclobutoxy)phenyl)sulfamoyl)-4-cyclopropylbenzoic acid], the IC50 was > 5 nM.

Take `CC1(C)CCC[C@@H]1Oc1cc(Cl)c(C#N)cc1NS(=O)(=O)c1cc(C(=O)O)ccc1C1CC1` [Example 57, (S)−3-(N-(4-chloro-5-cyano-2-((2,2-dimethylcyclopentyl)oxy)phenyl)sulfamoyl)-4-cyclopropylbenzoic acid]: the IC50 was < 1 nM.

Turning to `N#Cc1cc(F)c(OC2CCCC2)c(NS(=O)(=O)c2cc(C(=O)O)ccc2C2CC2)c1` [Example 14, 3-(N-(5-cyano-2-(cyclopentyloxy)−3-fluorophenyl)sulfamoyl)-4-cyclopropylbenzoic acid], the IC50 is > 5 nM.

Regarding `N#Cc1cc(NS(=O)(=O)c2cc(C(=O)O)ccc2C2CC2)c(OC2CCC2O)cc1Cl` (single isomer, unassigned) [Example 135, 3-(N-(4-chloro-5-cyano-2-(cis-2-hydroxycyclobutoxy)phenyl)sulfamoyl)-4-cyclopropylbenzoic acid], the IC50 is > 5 nM.

As for `N#Cc1cc(NS(=O)(=O)c2cc(C(=O)O)ccc2C2CC2)c(OC2CCC2C2CC2)cc1Cl` (single isomer, unassigned) [Example 133, 3-(N-(4-chloro-5-cyano-2-(2-cyclopropylcyclobutoxy)phenyl)sulfamoyl)-4-cyclopropylbenzoic acid], the IC50 lay in the range of 1 to 5 nM.

Turning to `N#Cc1cc(NS(=O)(=O)c2cc(C(=O)O)ccc2C2CC2)c(OC2CCC2O)cc1Cl` (single isomer, unassigned) [Example 128, 3-(N-(4-chloro-5-cyano-2-(trans-2-hydroxycyclobutoxy)phenyl)sulfamoyl)-4-cyclopropylbenzoic acid], the IC50 is < 1 nM.

As to `Cc1oncc1-c1cc(NS(=O)(=O)c2cc(C(=O)O)ccc2C2CC2)c(OC2CC(F)(F)C2)cc1Cl` [Example 61, 3-(N-(4-chloro-2-(3,3-difluorocyclobutoxy)-5-(5-methylisoxazol-4-yl)phenyl)sulfamoyl)-4-cyclopropylbenzoic acid], the IC50 was < 1 nM.

As for `Cc1cc(C#N)cc(NS(=O)(=O)c2cc(C(=O)O)ccc2C2CC2)c1OC1CCCC1` [Example 15, 3-(N-(5-cyano-2-(cyclopentyloxy)−3-methylphenyl)sulfamoyl)-4-cyclopropylbenzoic acid], the IC50 was > 5 nM.

In the case of `N#Cc1cc(NS(=O)(=O)c2cc(C(=O)O)ccc2C2CC2)c(O[C@H]2C[C@H](C#N)C2)cc1Cl` [Example 55, 3-(N-(4-chloro-5-cyano-2-(trans-3-cyanocyclobutoxy)phenyl)sulfamoyl)-4-cyclopropylbenzoic acid], the IC50 lay in the range of 1 to 5 nM.

Regarding `COc1ccc(C(=O)O)cc1S(=O)(=O)Nc1cc(C(F)(F)F)ccc1OC1CCCCC1` [Example 3, 3-(N-(2-(cyclohexyloxy)^−5-(trifluoromethyl)phenyl)sulfamoyl)-4-methoxybenzoic acid], the half-maximal inhibitory concentration (IC50) was > 5 nM.

In the case of `COC1CCC1Oc1cc(Cl)c(C#N)cc1NS(=O)(=O)c1cc(C(=O)O)ccc1C1CC1` (racemic) [Example 119, 3-(N-(4-chloro-5-cyano-2-(trans-2-methoxycyclobutoxy)phenyl)sulfamoyl)-4-cyclopropylbenzoic acid], the IC50 was < 1 nM.
